Measured values as given in patent US5376679A, “Bicyclic or tricyclic biocidal compounds” (Shell Internationale Research Maatschappij B.V., priority 1988, dated 1994).
≈ marks a conversion by molar mass, not a printed value.

What was measured:
[1] = tested on: Plasmopara viticola; assay: Direct protectant activity against vine downy mildew (Pvp); type: in vivo; design: Pvp: direct protectant activity against vine downy mildew: scale not given here; conditions: for Pvp: direct protectant activity against vine downy mildew: foliar spray, 1 kg/ha, activity grade 1 or 2, not defined
Excerpt: (a) Direct Protectant Activity Against Vine Downy Mildew (Plasmopara viticola; Pvp)
The test is a direct protectant one, using a foliar spray. The lower surfaces of leaves of whole vine plants (cv Cabernet Sauvignon) are sprayed with a solution of active material in 1:1 v/v water/acetone containing 0.04% w "Triton X-155" (trade mark) (octylphenol polyoxyethylene surfactant), at a dosage of 1 kilogram of active material per hectare using a track sprayer which delivers 620 liters/ha, and after a subsequent 24 hours under normal glasshouse conditions the lower surfaces of the leaves are inoculated by spraying with an aqueous solution containing 10^4 zoosporangia/ml. The inoculated plants are kept for 24 hours in a high humidity compartment, 5 days under normal glasshouse conditions and then returned for a further 24 hours to high humidity. Assessment is based on the percentage of leaf area covered by sporulation compared with that on control leaves.

[2] = tested on: Bacillus subtilis; assay: Minimum inhibitory concentration, Bacillus subtilis (Bs); type: cell-based; conditions: 30° C., 24 and 72 hours
Protocol: (§1) In respect of S. aureus, B. subtilis and E. coli, the microorganisms were cultured in 50 ml aliquots of a tryptone soya broth in 250 ml conical flasks at 30° C. on a rotary shaker at 200 rpm for 24 hours. Tryptone soya broth was prepared by adding 17 g pancreatic digest of casein, 3 g […] digest of soyabean meal, 5 g of sodium chloride, 2.5 g of dipotassium hydrogen phosphate and 2.5 g of dextrose to 1 liter of distilled water, mixing and sterilising by autoclaving at 121° C. for 15 minutes. 1 ml aliquots of the resulting cultures were mixed with 99 ml of fresh tryptone soya broth and used as inocula for tests. […] Test procedures were as follows: (ii) Dilution Series for Other Test Bacteria, Yeast and Filamentous Fungi Dilution series from the stock solution of each compound were prepared in sterile distilled water. These contained 50, 100, 500 and 1000 ppm compound. To duplicate wells of a compartmentalised square petri dish 0.3 ml of each test compound concentration was added together with 2.7 ml of one of the microbial inocula described above. […] After incubation, in the dark, at 30° C. the wells were examined for the presence or absence of growth. Bacterial and yeast cultures were examined after 24 hours and 72 hours incubation and the fungi cultures after 3, 7 and 10 days. By means of the above tests minimum inhibitory concentrations were determined for the various test compounds.

[3] = tested on: Chaetomium globosum; assay: Minimum inhibitory concentration, Chaetomium globosum (Chg); type: cell-based
Protocol: (§2) Inocula of the fungi Aspergillus niger, Cladosporium resinae and Chaetomium globosum were prepared containing 5×10^5 conidia/ml in a potato dextrose broth. The potato dextrose broth was prepared by suspending 4 g potato extract and 20 g dextrose in 1 liter of distilled water, warming to achieve solution, separating into aliquots and sterilising by autoclaving at 121° C. for 15 minutes.
(§3) Test procedures were as follows:
(§4) (ii) Dilution Series for Other Test Bacteria, Yeast and Filamentous Fungi
(§5) Dilution series from the stock solution of each compound were prepared in sterile distilled water. These contained 50, 100, 500 and 1000 ppm compound. To duplicate wells of a compartmentalised square petri dish 0.3 ml of each test compound concentration was added together with 2.7 ml of one of the microbial inocula described above. This gave final concentrations of the test compound of 5, 10, 50 and 100 ppm.
(§6) After incubation, in the dark, at 30° C. the wells were examined for the presence or absence of growth. Bacterial and yeast cultures were examined after 24 hours and 72 hours incubation and the fungi cultures after 3, 7 and 10 days.
(§7) By means of the above tests minimum inhibitory concentrations were determined for the various test compounds.

[4] = tested on: Staphylococcus aureus; assay: Minimum inhibitory concentration, Staphylococcus aureus (Sa); type: cell-based, Staphylococcus aureus (NCIB 6571); conditions: 30° C., 24 and 72 hours
Protocol: as §1

[5] = tested on: Fusarium culmorum; assay: Activity against seedling wheat blight, soil drench (Fs); type: in vivo; design: scale not given here; conditions: 10 kg/ha, 21 days, activity grade 1 or 2, not defined
Protocol: (d) Activity Against Seedling Wheat Blight (Fusarium culmorum; Fs)
The test is an anti-sporulant one using a soil drench. Surface sterilised wheat seeds (var Waggoner) are inoculated by soaking in an aqueous suspension containing 7×10^5 spores/ml (60 mg seed per 80 ml suspension) at 22° C. for 6 hours. The seeds are then sown in pots (5 per pot) in sand at a depth of 1 cm. 1 day after inoculation and planting the active material is applied at a rate of 10 kg/ha by pouring on a soil drench (concentration 0.36 g/l active material in 12% v/v acetone/water) evenly over the sand. The pots are then transferred to a glasshouse, kept at 25° C. and watered sparingly. 21 days after inoculation the resulting seedlings are removed from the pots and their roots are gently washed. Visual assessment is made based on lesion development on stem base and upper roots in comparison with control seedlings.

[6] = tested on: Desulfovibrio sp.; assay: Minimum inhibitory concentration, sulphate-reducing bacteria (Dsp); type: cell-based; conditions: 30° C., 2, 5 and 10 days
Protocol: The sulphate reducing bacteria Desulfovibrio sp. were cultured in a modified Postgate's Medium B for 48 hours at 30° C. and used directly as an inoculum. The modified Postgate's Medium B consisted of 0.5 g dipotassium hydrogen phosphate, 1 g ammonium chloride, 1 g sodium sulphate, 5 g sodium lactate, 1 g yeast extract, 0.1 ml thioglycolic acid, 0.1 ml ascorbic acid, 0.5 g ferrous sulphate heptahydrate, 750 ml aged seawater and 250 ml distilled water, pH adjusted to 7.8, divided into aliquots and sterilised by autoclaving at 121° C. for 15 minutes. […] Test procedures were as follows: (i) Suphate-reducing Bacteria Test Dilution Series Duplicate aliquots (9.9 ml) of dilution series from the stock solutions of each compound were prepared in a modified Postgate's Medium B described above. These contained 100 ppm compound. These were then inoculated with 0.1 ml of inoculum. After incubation at 30° C., the presence or absence of growth--as indicated by a blackening of the medium due to ferrous sulphide production--was recorded at 2, 5 and 10 days. […] By means of the above tests minimum inhibitory concentrations were determined for the various test compounds.

[7] = tested on: Saccharomyces cerevisiae; assay: Minimum inhibitory concentration, yeast (Sc); type: cell-based, Saccharomyces cerevisiae (ATCC 9763); conditions: 30° C., 24 and 72 hours
Protocol: Inocula of S. cerevisiae were prepared as for S. aureus, B. subtilis and E. coli, but using yeast malt broth in place of the typtone soya broth. The yeast malt broth was prepared by suspending 3 g yeast extract, 3 g malt extract, 5 g peptone and 10 g dextrose in 1 liter of distilled water, warming to achieve solution and sterilising by autoclaving at 121° C. for 15 minutes.
as §3, §4, §5, §6, §7

[8] = tested on: Escherichia coli; assay: Minimum inhibitory concentration, Escherichia coli (Ec); type: cell-based, Escherichia coli (NCIB 9517); conditions: 30° C., 24 and 72 hours
Protocol: as §1

[9] = tested on: Pseudocercosporella herpotrichoides; assay: In vitro activity against wheat eyespot (Ph); type: cell-based; design: Ph: activity against wheat eyespot: scale not given here; conditions: in vitro, 100 ppm in agar, 11 days; activity grade 1 or 2, not defined
Protocol: (c) Activity Against Wheat Eyespot (Pseudocercosporella herpotrichoides; Ph)
The test is an in vitro one. Samples are prepared wherein 0.7 mls solution containing 2 mg active material dissolved in acetone is evenly dispersed in 20 ml molten half-strength potato dextrose agar (formed by dissolving 2 g potato extract, 10 g dextrose and 7.5 g agar in 1 liter of water and sterilising for 15 minutes and 121° C.) and the resulting 20 ml portions are allowed to set in 9 cm petri dishes. The concentration of active material in the resulting samples is 100 ppm. Upon setting, two plugs of 5 mm diameter taken from the advancing edge of a stock plate of a 3 to 4 week old culture of P.herpotrichoides on full strength potato dextrose agar, incubated at 20°-22° C. in darkness, are placed, equally spaced on the surface of each sample, mycelial side uppermost. The samples are incubated for 11 days at 20°-22° C. in darkness before assessment. Diametric growth is measured with the width of the plug subtracted and results compared with growth on a sample wherein 0.7 ml acetone containing no active material is dispersed in 20 ml half-strength potato agar.

[10] = tested on: Cladosporium resinae; assay: Minimum inhibitory concentration, Cladosporium resinae (Cr); type: cell-based; conditions: Amorphotheca resinae, 30° C., 3, 7 and 10 days
Protocol: as §2, §3, §4, §5, §6, §7

[11] = tested on: Aspergillus niger; assay: Minimum inhibitory concentration, Aspergillus niger (An); type: cell-based, Aspergillus niger (CMI 17454); conditions: 30° C., 3, 7 and 10 days
Protocol: as §2, §3, §4, §5, §6, §7

[12] = tested on: Leptosphaeria nodorum; assay: Direct antisporulant activity against wheat leafspot (Ln); type: in vivo; design: scale not given here; conditions: foliar spray, 1 kg/ha; activity grade 1 or 2, not defined
Protocol: (e) Activity Against Wheat Leafspot (Leptosphaeria nodorum; Ln) The test is a direct antisporulant one, using a foliar spray. Leaves of wheat plants ([…]), at the single leaf stage, are inoculated by spraying with an aqueous suspension containing 8×10^5 spores/mi. The inoculated plants are kept for 24 hours in a high humidity compartment prior to treatment. […] After drying, the plants are kept for 5 days under normal glasshouse conditions, followed by assessment. Assessment is based on the percentage of leaf area covered by sporulation compared with that on leaves of control plants.

[13] = tested on: Erysiphe graminis f.sp. hordei; assay: Direct antisporulant activity against barley powdery mildew (Eg); type: in vivo; design: scale not given here; conditions: foliar spray, 1 kg/ha; activity grade 1 or 2, not defined
Excerpt: (f) Activity Against Barley Powdery Mildew (Erysiphe graminis f.sp. hordei; Eg) The test is a direct antisporulant one, using a foliar spray. Leaves of barley seedlings, cultivar Golden Promise, are inoculated by dusting with mildew conidia one day prior to treatment with the test compound. The inoculated plants are kept overnight at glasshouse ambient temperature and humidity prior to treatment. […] After drying, plants are returned to a compartment at ambient temperature and humidity for up to 7 days, followed by assessment. Assessment is based on the percentage of leaf area covered by sporulation compared with that on leaves of control plants.

Compound | Pvp: direct protectant activity against vine downy mildew [1] | MIC [2] | MIC ([3]; *only tested at 100 ppm) | MIC [4] | Fs: activity against seedling wheat blight [5] | MIC [6] | MIC [7] | MIC [8] | Ph: activity against wheat eyespot [9] | MIC [10] | MIC [11] | Ln: activity against wheat leafspot [12] | Eg: activity against barley powdery mildew [13] | MIC ([3]; 30° C., 3, 7 and 10 days) | activity against Pvp ([1]; secondary screening)
COC(=O)N=Nc1cc(C)cc2c1OC(C)(C)C2 [Example 32] | 1 |  |  |  |  |  |  |  |  |  |  |  |  |  | 
CC1(C)C=Cc2cccc([N+]([O-])=NC#N)c2O1 [Example 27] |  | > 100 µg/mL | < 100 µg/mL | > 100 µg/mL | 2 | 100 µg/mL (≈ 436 µM) | > 100 µg/mL | > 100 µg/mL | 2 | 25 µg/mL (≈ 109 µM) | 100 µg/mL (≈ 436 µM) |  |  |  | 
CCC1Cc2cccc([N+]([O-])=NC#N)c2O1 (stereo not drawn) [Example 8] |  | > 100 µg/mL | < 100 µg/mL | > 100 µg/mL | 2 | > 100 µg/mL | 100 µg/mL (≈ 460 µM) | > 100 µg/mL | 2 | 10 µg/mL (≈ 46 µM) | 10 µg/mL (≈ 46 µM) | 1 | 1 |  | 
C#CCOC(=O)N=Nc1cc(C)c(Cl)c2c1OC(C)CC2 (stereo not drawn) [Example 41] | 1 |  |  |  |  |  |  |  |  |  |  |  | 1 |  | 
N#CN=[N+]([O-])c1cccc2c1OC(CO)C2 (stereo not drawn) [Example 12] |  | 50 µg/mL (≈ 228 µM) |  | > 100 µg/mL |  | 50 µg/mL (≈ 228 µM) | > 100 µg/mL | 100 µg/mL (≈ 456 µM) |  | 100 µg/mL (≈ 456 µM) | > 100 µg/mL |  |  | 100 µg/mL (≈ 456 µM) | 
N#CN=[N+]([O-])c1cccc2c1OC(CCl)C2 (stereo not drawn) [Example 13] |  | 100 µg/mL (≈ 421 µM) |  | 100 µg/mL (≈ 421 µM) |  | > 100 µg/mL | 100 µg/mL (≈ 421 µM) | 100 µg/mL (≈ 421 µM) |  | 100 µg/mL (≈ 421 µM) | 10 µg/mL (≈ 42.1 µM) |  |  | 25 µg/mL (≈ 105 µM) | 
CC1CCc2cccc([N+]([O-])=NC#N)c2O1 (stereo not drawn) [Example 14] |  | > 100 µg/mL |  | > 100 µg/mL |  | 100 µg/mL (≈ 460 µM) | 50 µg/mL (≈ 230 µM) | > 100 µg/mL | 2 | 25 µg/mL (≈ 115 µM) | 10 µg/mL (≈ 46 µM) |  |  | < 5 µg/mL | 
CC1(C)CCc2cc(Cl)cc([N+]([O-])=NC#N)c2O1 [Example 15] |  | 100 µg/mL (≈ 376 µM) |  | > 100 µg/mL | 2 | > 100 µg/mL | 50 µg/mL (≈ 188 µM) | > 100 µg/mL | 2 | > 100 µg/mL | 10 µg/mL (≈ 37.6 µM) |  |  | > 100 µg/mL | 
N#CN=[N+]([O-])c1ccc2c(c1)C=CCO2 [Example 28] |  | 50 to 100 µg/mL (≈ 249 to 497 µM) |  | > 100 µg/mL |  | 100 µg/mL (≈ 497 µM) | 25 µg/mL (≈ 124 µM) | > 100 µg/mL |  | 25 to 50 µg/mL (≈ 124 to 249 µM) | 10 to 25 µg/mL (≈ 49.7 to 124 µM) |  |  | 25 µg/mL (≈ 124 µM) | 
C#CCOC(=O)N=Nc1ccc(C)c2c1OC(C)CC2 (stereo not drawn) [Example 39] |  |  |  |  |  |  |  |  |  |  |  | 1 | 1 |  | 
CCOC(=O)N=Nc1cc(C)c(Cl)c2c1OC(C)CC2 (stereo not drawn) [Example 42] |  |  |  |  |  |  |  |  |  |  |  |  | 2 |  | 
COC(=O)N=[N+]([O-])c1cc(C)cc2c1OC(C)(C)C2 [Example 44] | 1 |  |  |  |  |  |  |  |  |  |  |  | 2 |  | 
Cc1ccc(N=NC#N)c2c1CC(C)(C)O2 [Example 38] | 2 |  |  |  |  |  |  |  |  |  |  |  |  |  | high activity
